Like-named read-outs stand apart in the source and are kept apart here.
Biological target: T1, Cav3.2 channel (Homo sapiens, UniProt O95180)
T1 construct: expressed in transfected cells; host or cells: HEK-293, tetracycline inducible expression system (Invitrogen)
Test: Whole-cell patch clamp of T-type Cav3.2 channel expressed in HEK293 cells
Format: cell-based
Details: for IC50: Table 1, tested at at least 4 concentrations, read-out: IC50
Experimental: Cav3.1, Cav3.2 or Cav3.3 channels were expressed in human embryonic kidney (HEK)-293 cells using a tetracycline inducible expression system (Invitrogen). Cells were maintained in 25 cm^2 tissue culture flasks at 37° C., 5% CO2, and 100% relative humidity in D-MEM/F12 (Dulbecco's Modified Eagle Medium/Nutrient Mixture F-12; Gibco) supplemented with fetal bovine serum (FBS, 10% v/v), sodium pyruvate (0.5 mM, Gibco), penicillin-streptomycin (100 U/mL, 100 μg/mL) and Geneticin® Selective antibiotic (G418; 0.5 mg/mL). Cells were detached from the flask base using a non-enzymatic cell dissociation solution (Cellstripper, Corning), removed and re-seeded on to poly-D-lysine coated glass coverslips in 35 mm dishes. Cells in dishes were further supplemented with G418 at a final concentration of 1 mg/mL and after 24 hours, expression of Cav3.2 was induced with 1 μg/mL tetracycline. The medium for the HEK-293 cells was composed of D-MEM/F-12 (Dulbecco's Modified Eagle Medium/Nutrient Mixture F-12; Gibco, #11330-032) and 15 mM HEPES buffer, with L-glutamine and pyridoxine hydrochloride. It was supplemented with FBS (Fetal Bovine Serum), P/S (Penicillin/Streptomycin) (Gibco, #15140-122), and sodium pyruvate 100 mM (Gibco, #11360-070). At least 24 hours before the assay, expression of the alpha-2-delta-1 and beta2a subunits of the calcium channel were induced with 1 ug/mL tetracycline.
Whole-cell voltage clamp recordings were performed on rat or mouse DRG neurons within 2 days after acutely dissociation or cultured HEK293 cells expressing T-type channels (encoded by Cav3.1, Cav3.2 or Cav3.3 channels). All experiments were performed at room temperature (around 21° C.). Whole-cell currents were recorded using a MultiClamp 700B amplifier and analyzed offline with pCLAMP10.4 software (Molecular Devices, LLC, Sunnyvale Calif., USA). To record calcium currents in DRG and HEK293 cells, the external solution was composed (in mM) of 115 choline-Cl, 30 TEA-Cl, 2 CaCl2, 10 glucose and 10 HEPES (pH 7.3-7.4 adjusted with TEA-OH; osmolality verified as 295 mOsm/kg). The internal solution was composed (in mM) of 125 CsCl, 10 HEPES (acid), 10 EGTA (ethylene glycol tetraacetic acid), 1 CaCl2, 1 MgCl2, 4 MgATP and 0.3 MgGTP (pH 7.3-7.4 adjusted with CsOH; osmolality verified as 295 mOsm/kg). Since the sodium ions were absent in the external solution, tetrodoctoxin was not needed. Calcium currents were recorded at a holding potential of −100 mV and then depolarized to −30 mV for 100 ms to activate either Cav3.1, Cav3.2, or Cav3.3 expressed in HEK cells. An interpulse interval of 10 seconds allowed the channel recovery from inactivation, and achieved stable current recordings. To record sodium (Na^+) currents in DRG neurons, the external solution used the modified Krebs solution specified above. The internal solution was composed (in mM) of 120 CsF, 10 HEPES, 11 EGTA, 1 CaCl2, 1 MgCl2, 10 TEA-Cl, 4 MgATP and 0.3 MgGTP (pH 7.3-7.4 adjusted with CsOH). […] To record potassium currents in DRG neurons, the external solution used the modified Kreb's solution specified above. The internal solution was composed (in mM) of 65 KCl, 80 KF, 5 KOH, 10 EGTA, 2 MgATP (pH 7.3-7.4 adjusted with KOH). Recording electrodes were fabricated using a P-87 puller (Sutter Instrument Co., Novato, Calif., USA). The tip of resistance was 3-4 MQ in bath and the series resistance was less than 10 MΩ after whole cell configuration. All reagents were purchased from Sigma unless specified otherwise. Test compounds were usually applied via a rapid solution exchange system with 8 fine polyplastic tubings (100 μm, OD) glued in a holder in parallel and located closely to the recorded cells. […]

[1] = HEK293, Table 1 primary screening, 3 μM as indicated in cell, read-out: % inhibition at 3 μM

T1 sequence (O95180 whole entry): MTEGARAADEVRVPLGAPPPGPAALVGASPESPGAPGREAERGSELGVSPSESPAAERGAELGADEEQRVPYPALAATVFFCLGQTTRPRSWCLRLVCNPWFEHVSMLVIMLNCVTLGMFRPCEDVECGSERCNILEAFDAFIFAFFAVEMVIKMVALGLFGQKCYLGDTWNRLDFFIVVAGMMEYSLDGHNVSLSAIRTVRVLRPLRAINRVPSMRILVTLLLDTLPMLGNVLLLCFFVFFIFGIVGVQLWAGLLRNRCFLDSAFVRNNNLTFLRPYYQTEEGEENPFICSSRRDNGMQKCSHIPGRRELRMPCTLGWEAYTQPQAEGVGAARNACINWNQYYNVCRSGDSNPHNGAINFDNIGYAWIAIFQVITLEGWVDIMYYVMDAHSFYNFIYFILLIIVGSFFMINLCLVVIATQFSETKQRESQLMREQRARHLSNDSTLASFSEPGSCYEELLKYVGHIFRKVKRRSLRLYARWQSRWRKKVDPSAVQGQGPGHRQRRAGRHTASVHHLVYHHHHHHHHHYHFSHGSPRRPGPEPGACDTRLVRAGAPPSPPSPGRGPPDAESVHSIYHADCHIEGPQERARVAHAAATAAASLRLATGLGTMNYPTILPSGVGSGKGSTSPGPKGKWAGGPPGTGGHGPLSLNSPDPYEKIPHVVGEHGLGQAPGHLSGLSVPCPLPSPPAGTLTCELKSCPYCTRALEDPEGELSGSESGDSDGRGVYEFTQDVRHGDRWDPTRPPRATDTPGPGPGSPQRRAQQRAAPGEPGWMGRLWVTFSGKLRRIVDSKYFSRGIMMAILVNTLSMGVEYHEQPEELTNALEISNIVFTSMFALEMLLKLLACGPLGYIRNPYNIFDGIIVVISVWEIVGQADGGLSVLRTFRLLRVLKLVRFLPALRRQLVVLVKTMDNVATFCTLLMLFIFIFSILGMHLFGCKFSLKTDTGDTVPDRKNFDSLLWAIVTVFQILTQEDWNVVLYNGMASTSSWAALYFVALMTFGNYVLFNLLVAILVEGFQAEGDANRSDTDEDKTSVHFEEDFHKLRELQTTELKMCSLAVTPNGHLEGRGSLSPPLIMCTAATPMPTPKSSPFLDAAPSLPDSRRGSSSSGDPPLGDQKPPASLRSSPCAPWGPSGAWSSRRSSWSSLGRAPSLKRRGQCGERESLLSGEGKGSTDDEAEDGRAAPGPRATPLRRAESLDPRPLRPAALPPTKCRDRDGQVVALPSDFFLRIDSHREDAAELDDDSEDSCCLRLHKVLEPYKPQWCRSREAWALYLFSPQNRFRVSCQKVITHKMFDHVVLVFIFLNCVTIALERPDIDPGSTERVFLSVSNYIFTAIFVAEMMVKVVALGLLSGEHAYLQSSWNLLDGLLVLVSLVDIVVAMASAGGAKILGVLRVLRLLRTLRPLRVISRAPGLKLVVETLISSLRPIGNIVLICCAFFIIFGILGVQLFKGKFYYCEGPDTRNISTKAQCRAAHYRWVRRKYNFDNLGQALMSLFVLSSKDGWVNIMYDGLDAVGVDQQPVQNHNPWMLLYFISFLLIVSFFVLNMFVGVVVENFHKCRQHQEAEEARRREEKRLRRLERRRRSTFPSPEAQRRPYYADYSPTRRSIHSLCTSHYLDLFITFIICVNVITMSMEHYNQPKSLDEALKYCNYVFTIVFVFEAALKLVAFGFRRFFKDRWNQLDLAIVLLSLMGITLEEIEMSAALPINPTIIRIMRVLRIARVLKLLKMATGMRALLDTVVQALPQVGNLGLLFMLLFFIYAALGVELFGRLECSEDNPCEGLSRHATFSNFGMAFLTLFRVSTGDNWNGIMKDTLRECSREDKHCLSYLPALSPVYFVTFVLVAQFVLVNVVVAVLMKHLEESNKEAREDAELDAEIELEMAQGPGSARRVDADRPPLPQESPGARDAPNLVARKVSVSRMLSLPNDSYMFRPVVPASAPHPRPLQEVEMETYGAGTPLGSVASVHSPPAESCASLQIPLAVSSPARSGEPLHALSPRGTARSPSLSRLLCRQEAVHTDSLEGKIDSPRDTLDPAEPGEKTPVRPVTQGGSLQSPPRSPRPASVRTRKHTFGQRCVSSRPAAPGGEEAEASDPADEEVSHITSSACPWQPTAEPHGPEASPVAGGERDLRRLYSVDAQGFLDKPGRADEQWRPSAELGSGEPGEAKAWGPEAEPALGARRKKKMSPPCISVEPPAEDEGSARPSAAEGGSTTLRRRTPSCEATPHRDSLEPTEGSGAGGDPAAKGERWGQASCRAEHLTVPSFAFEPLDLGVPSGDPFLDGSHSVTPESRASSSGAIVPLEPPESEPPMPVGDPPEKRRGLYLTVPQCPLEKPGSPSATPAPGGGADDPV

Compound	IC50	also measured
CC(C)(C)NC(=O)CN1CCC2(CC1)C[C@@H]2NC(=O)c1cc(Cl)cc(Cl)c1 (single isomer, unassigned) [Example 56, (S)—N-(6-(2-(tert-Butylamino)-2-oxoethyl)-6-azaspiro[2.5]octan-1-yl)-3,5-dichlorobenzamide or (R)—N-(6-(2-(tert-Butylamino)-2-oxoethyl)-6-azaspiro[2.5]octan-1-yl)-3,5-dichlorobenzamide]	190 nM	
CC(C)(C)NC(=O)CN1CCC2(CC1)C[C@@H]2NC(=O)[C@]12C[C@@]3(F)C[C@](F)(C[C@](F)(C3)C1)C2 (single isomer, unassigned) [Example 131, (3S,5S,7S)—N—((R)-6-(2-(tert-Butylamino)-2-oxoethyl)-6-azaspiro[2.5]octan-1-yl)-3,5,7-trifluoroadamantane-1-carboxamide or (3S,5S,7S)—N—((S)-6-(2-(tert-Butylamino)-2-oxoethyl)-6-azaspiro[2.5]octan-1-yl)-3,5,7-trifluoroadamantane-1-carboxamide]	620 nM	
CC(C)(C)NC(=O)CN1CCC2(CC1)C[C@H]2C(=O)Nc1cc(F)cc(C(F)(F)F)c1 (single isomer, unassigned) [Example 133, (R)-6-(2-(tert-Butylamino)-2-oxoethyl)-N-(3-fluoro-5-(trifluoromethyl)phenyl)-6-azaspiro[2.5]octane-1-carboxamide or (S)-6-(2-(tert-Butylamino)-2-oxoethyl)-N-(3-fluoro-5-(trifluoromethyl)phenyl)-6-azaspiro[2.5]octane-1-carboxamide]	200 nM	
CC(C)(C)C(=O)CN1CCC2(CC1)C[C@H]2NC(=O)c1cc(F)cc(Cl)c1 (single isomer, unassigned) [Example 134, (R)-3-Chloro-N-(6-(3,3-dimethyl-2-oxobutyl)-6-azaspiro[2.5]octan-1-yl)-5-fluorobenzamide or (S)-3-Chloro-N-(6-(3,3-dimethyl-2-oxobutyl)-6-azaspiro[2.5]octan-1-yl)-5-fluorobenzamide]	120 nM	
CC(C)(C)C(O)CN1CCC2(CC1)CC2NC(=O)c1cc(F)cc(Cl)c1 (single isomer, unassigned) [Example 135, 3-Chloro-5-fluoro-N-((1R)-6-(2-hydroxy-3,3-dimethylbutyl)-6-azaspiro[2.5]octan-1-yl)benzamide or 3-Chloro-5-fluoro-N-((1S)-6-(2-hydroxy-3,3-dimethylbutyl)-6-azaspiro [2.5]octan-1-yl) benzamide]	210 nM	
O=C(CN1CCC2(CC1)CC2NC(=O)c1cc(F)cc(Cl)c1)c1ccc(C(F)(F)F)cc1 (single isomer, unassigned) [Example 136, (R)-3-Chloro-5-fluoro-N-(6-(2-oxo-2-(4-(trifluoromethyl)phenyl)ethyl)-6-azaspiro[2.5]octan-1-yl)benzamide or (S)-3-Chloro-5-fluoro-N-(6-(2-oxo-2-(4-(trifluoromethyl)phenyl)ethyl)-6-azaspiro[2.5]octan-1-yl) benzamide]	260 nM	
O=C(N[C@@H]1CC12CCN(CC(O)c1ccc(C(F)(F)F)cc1)CC2)c1cc(F)cc(Cl)c1 (single isomer, unassigned) [Example 137, 3-Chloro-5-fluoro-N-((1R)-6-(2-hydroxy-2-(4-(trifluoromethyl)phenyl)ethyl)-6-azaspiro[2.5]octan-1-yl)benzamide or 3-Chloro-5-fluoro-N-((1S)-6-(2-hydroxy-2-(4-(trifluoromethyl)phenyl)ethyl)-6-azaspiro[2.5]octan-1-yl)benzamide]	70 nM	
O=C(CN1CCC2(CC1)CC2NC(=O)c1cc(F)cc(Cl)c1)c1ccc(F)cc1 (single isomer, unassigned) [Example 138, (R)-3-Chloro-5-fluoro-N-(6-(2-(4-fluorophenyl)-2-oxoethyl)-6-azaspiro[2.5]octan-1-yl)benzamide or (S)-3-Chloro-5-fluoro-N-(6-(2-(4-fluorophenyl)-2-oxoethyl)-6-azaspiro[2.5]octan-1-yl)benzamide]	180 nM	
O=C(NC1CC12CCN(CC(O)c1ccc(F)cc1)CC2)c1cc(F)cc(Cl)c1 (single isomer, unassigned) [Example 139, 3-Chloro-5-fluoro-N-((1R)-6-(2-(4-fluorophenyl)-2-hydroxyethyl)-6-azaspiro[2.5]octan-1-yl)benzamide or 3-Chloro-5-fluoro-N-((1S)-6-(2-(4-fluorophenyl)-2-hydroxyethyl)-6-azaspiro[2.5]octan-1-yl)benzamide]	90 nM	
CC(C)NC(=O)CN1CCC2(CC1)CC2NC(=O)c1cc(F)cc(Cl)c1 (single isomer, unassigned) [Example 140, (R)-3-Chloro-5-fluoro-N-(6-(2-(isopropylamino)-2-oxoethyl)-6-azaspiro[2.5]octan-1-yl)benzamide or (S)-3-Chloro-5-fluoro-N-(6-(2-(isopropylamino)-2-oxoethyl)-6-azaspiro[2.5]octan-1-yl)benzamide]	520 nM	
CC(C)(C)NC(=O)CN1CCC2(CCC2NC(=O)c2cc(Cl)cc(Cl)c2)CC1 (stereo in doubt) [Example 114, (R)—N-(7-(2-(tert-Butylamino)-2-oxoethyl)-7-azaspiro[3.5]nonan-1-yl)-3,5-dichlorobenzamide]	230 nM	
CC(C)CN1CCC2(CC1)CC2NC(=O)c1ccccc1 (stereo not drawn) [Example 1, N-(6-Isobutyl-6-azaspiro[2.5]octan-1-yl)benzamide]		inhibition at 3 µM (HEK293, read-out: % inhibition at 3 μM): 15.3%
CC(C)(C)CCN1CCC2(CC1)CC2NC(=O)c1ccccc1 (stereo not drawn) [Example 2, N-(6-(3,3-Dimethylbutyl)-6-azaspiro[2.5]octan-1-yl)benzamide]		inhibition at 3 µM [1]: 55.3%
O=C(NC1CC12CCN(CCc1ccccc1)CC2)c1ccccc1 (stereo not drawn) [Example 3, N-(6-Phenethyl-6-azaspiro[2.5]octan-1-yl)benzamide]		inhibition at 3 µM [1]: 47.7%
CC(C)(C)NC(=O)CN1CCC2(CC1)CC2NC(=O)c1ccccc1 (stereo not drawn) [Example 4, N-(6-(2-(tert-Butylamino)-2-oxoethyl)-6-azaspiro[2.5]octan-1-yl)benzamide]		inhibition at 3 µM [1]: 24.7%
O=C(NC1CC12CCN(Cc1ccccc1)CC2)c1ccccc1 (stereo not drawn) [Example 5, N-(6-Benzyl-6-azaspiro[2.5]octan-1-yl)benzamide]		inhibition at 3 µM [1]: 44%
CC(C)CN1CCC2(CC1)CC2NC(=O)c1ccc(Cl)c(Cl)c1 (stereo not drawn) [Example 6, 3,4-Dichloro-N-(6-isobutyl-6-azaspiro[2.5]octan-1-yl)benzamide]		inhibition at 3 µM [1]: 29.1%
CC(C)(C)CCN1CCC2(CC1)CC2NC(=O)c1ccc(Cl)c(Cl)c1 (stereo not drawn) [Example 7, 3,4-Dichloro-N-(6-(3,3-dimethylbutyl)-6-azaspiro[2.5]octan-1-yl)benzamide]	120 nM	
O=C(NC1CC12CCN(CCc1ccccc1)CC2)c1ccc(Cl)c(Cl)c1 (stereo not drawn) [Example 8, 3,4-Dichloro-N-(6-phenethyl-6-azaspiro[2.5]octan-1-yl)benzamide]	120 nM	
CC(C)(C)NC(=O)CN1CCC2(CC1)CC2NC(=O)c1ccc(Cl)c(Cl)c1 (stereo not drawn) [Example 9, N-(6-(2-(tert-Butylamino)-2-oxoethyl)-6-azaspiro[2.5]octan-1-yl)-3,4-dichlorobenzamide]	80 nM	
O=C(NC1CC12CCN(Cc1ccccc1)CC2)c1ccc(Cl)c(Cl)c1 (stereo not drawn) [Example 10, N-(6-Benzyl-6-azaspiro[2.5]octan-1-yl)-3,4-dichlorobenzamide]	800 nM	
